Where no end group is shown, it is not given here.
Assays:
[1] = test system: 4T1 cells; assay: Spontaneous lung metastasis clonogenic assay in 4T1 xenograft mouse model; assay type: in vivo, BALB/c female mice; details: 10 mg/kg once a day for eight days, intraperitoneal injection, HIV-TAT fused peptide; versus scrambled control
Protocol: All experimental procedures were conducted following the Federation of Laboratory Animal Science Association (FELSA) and were approved by the Bar-Ilan University animal use and care committee. Mouse xenograft tumors were generated by injecting 10^6 4T1 cells resuspended in 20% collagen I (BD Biosciences, Franklin Lakes, NJ, USA) in PBS into the lower-left mammary gland of 8-week-old BALB/c female mice. […] 4T1 cells have intrinsic resistance to 6-thioguanine, which enables precise quantification of metastatic cells, even when they are disseminated at sub-microscopic levels at distant organs, upon excision and digestion of selected organs. The clonogenic assay is based on a principle by which one colony represents one metastatic cell. Briefly, spontaneous lung metastasis was measured in BALB/c mice bearing orthotopic 4T1 tumors of equal size (1-1.2 cm in diameter). Lungs were excised and minced and plated in RPMI/10% FBS in the presence of 6-thioguanine to select for tumor cells only. Cells were plated in a 5% CO2 incubator at 37° C. for 14 days to form 4T1 colonies. On day 14 after plating, the medium was removed from dishes, and colonies were fixed in 4% paraformaldehyde for one hour at room temperature. Colonies were then stained in 2% crystal violet solution and thoroughly washed with PBS. Plates were allowed to air dry, and colonies in each plate were quantified. […]

[2] = test system: interaction between Pyk2 and cortactin in invadopodia; assay: Acceptor photobleaching FRET assay; assay type: cell-based, human; details: 0.1, 1, 5 μM peptide; mature matrix-degrading invadopodia
Protocol: Acceptor photobleaching experiments were performed as described in Genna et al., 2018 (supra). In brief, cortactin-TagRFP MDA-MB-231 cells were plated on Alexa 405 gelatin in a medium containing Pyk2-PRR or scrambled control peptides at 0.1, 1, and 5 μM concentration, fixed, and immunostained with pY402-Pyk2/Alexa Fluor 488-goat anti-rabbit (donor) and cortactin/Alexa Fluor 555-goat anti-mouse (acceptor). As a control, cells were stained with Tks5/Alexa Fluor 488-goat anti-rabbit (donor) and cortactin/Alexa Fluor 555-goat anti-mouse (acceptor). Co-localization of cortactin with degradation holes in Alexa 405-labeled gelatin was used to identify mature degrading invadopodia. For all FRET experiments, cells were imaged in PBS at room temperature on a laser-scanning inverted confocal microscope (Zeiss LSM780; 60×, NA 1.4, oil objective). A region of interest surrounding invadopodia was bleached using 100% 561-nm laser power (acceptor channel), and images were acquired in both the 488 nm and the 561 nm channels before and after bleaching. FRET efficiency was calculated as the E=1−(donor pre/donor post) in background-subtracted images and was corrected for fluctuations in laser power and donor bleaching in ImageJ.

[3] = test system: MDA-MB-231 cells; assay: Invadopodium precursor formation assay; assay type: cell-based, human; details: 4 h, 0.1, 1 or 5 μM peptide
Protocol: The invadopodium precursor formation assay was performed as described in Genna et al., 2018 (supra). Briefly, gelatin was conjugated to Alexa 405 dye (Thermo Fisher Scientific). MatTek dishes were treated with 1 N HCl and coated with 50 μg/ml poly-L-lysine. A 0.2% gelatin solution was prepared in PBS, and a 1:20 mixture of Alexa 405-labeled gelatin/unlabeled gelatin was warmed to 37° C. before addition to the poly-L-lysine coated plates. Gelatin was cross-linked with 0.01% glutaraldehyde followed by quenching with 5 mg/ml sodium borohydride. 125,000 MDA-MB-231 cells were plated on Alexa 405-labeled gelatin plates in the presence of 0.1, 1, or 5 μM of Pyk2-PRR peptides or scrambled control for 4 h. At the end of incubation, cells were fixed in 3.7% paraformaldehyde, permeabilized with 0.1% Triton X-100, blocked with 1% FBS, 1% BSA in PBS, and labeled with anti-Tks5 and anti-cortactin. Images were acquired using an inverted fluorescent microscope (Leica AF6000; 63×, NA 1.4, oil objective, Leica LAS AF acquisition software) (Wetzlar, Germany) equipped with an ORCA-Flash 4.0 V2 digital CMOS camera (Hamamatsu Photonics, Shizuoka, Japan).

[4] = test system: MDA-MB-231 cells; assay: ECM degradation assay; assay type: cell-based, human; details: 24 h on fluorescent fibronectin/gelatin matrix; compared to control peptide
Protocol: The in vitro matrix degradation assay was performed as described in Genna et al., 2018 (supra). Briefly, MatTek dishes were treated with 2.5% gelatin/2.5% sucrose, cross-linked with 0.5% glutaraldehyde, treated with 10 μg/ml of fluorescently labeled fibronectin (Alexa 568; Invitrogen, Thermo Fischer Scientific), and then with 1 mg/ml NaBH4 in PBS. 125,000 cells were plated on the fibronectin/gelatin matrix in Pyk2-PRR or control peptides and allowed to degrade for 24 h. Cells were then fixed in 3.7% paraformaldehyde, and random fields were imaged using an inverted fluorescent microscope (Leica AF6000; 40×, NA 1.3, oil objective). ECM degradation was analyzed by quantifying the average degraded area in pixels per field using ImageJ.

[5] = target: T1, cortactin-SH3 domain (mouse cortactin SH3 domain, GenBank ID U03184; nucleotides 1468-1641) (mouse, UniProt Q60598 490-546, isotopically labeled (15N, 13C and/or 2H) for NMR); assay: NMR chemical shift titration
T1 construct: domain: SH3 domain; also called purified cortactin-SH3

[6] = target: T1, cortactin-SH3 domain (mouse cortactin …); assay: NMR chemical shift titration (1H,15N-HSQC), unlabeled peptide into 15N-SH3

T1 sequence (Q60598 490-546 limits assumed, one chain of several): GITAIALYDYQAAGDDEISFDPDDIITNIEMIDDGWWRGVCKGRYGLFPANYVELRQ

Molecule | lung metastases (6-thioguanine-resistant colonies) [1] | interaction between Pyk2 and cortactin in invadopodia (FRET) [2] | mature, matrix-degrading invadopodia ([3]; co-localization with degradation regions) | immature invadopodium precursors ([3]; cortactin and Tks5 co-localization) | matrix degradation (degradation area) [4] | fold higher affinity than Pyk2-PRR3 [5] [fold] | Kd [6] [µM]
TAFQEPAPKASQAQYRPPP [Pyk2 super-mutant, TAFQEPAPKASQAQYRPPP] | no significant differences in colony number | does not significantly inhibit | small but significant reduction | no significant effect | small but significant reduction |  | 
TAFQEPPPKPSRPKYRPPP (Unlabeled synthetic peptide as used in the NMR experiments; Positions count on UniProt Q14289) [Pyk2-PRR2 peptide (SEQ ID NO: 1)] |  |  |  |  |  | 16 | 40

Source: patent US20240368566A1, “PYK2-DERIVED PEPTIDES FOR INHIBITING INVADOPODIA-MEDIATED CANCER METASTASIS” (BAR-ILAN UNIVERSITY, priority 2023, published 2024)
